From ChEMBL document CHEMBL5584244, “Discovery of novel pyrrolo[2,1-c][1,4]benzodiazepine-3,11-dione (PBD) derivatives as selective HDAC6 inhibitors for the efficient treatment of idiopathic pulmonary fibrosis (IPF) in vitro and in vivo” (Eur J Med Chem, 2024)
pIC50: −log10 of the molar value. Active and inactive are the calls of the source. The rule behind the calls is not given here.

Columns and labels:
[1] = molecular target: T1, Protein deacetylase HDAC6 (Homo sapiens, UniProt Q9UBN7); assay: Inhibition of recombinant human full length HDAC6 using Boc-Lys (Ac)-AMC as substrate incubated for 120 mins by fluorescence analysis
T1 sequence (Q9UBN7 whole entry): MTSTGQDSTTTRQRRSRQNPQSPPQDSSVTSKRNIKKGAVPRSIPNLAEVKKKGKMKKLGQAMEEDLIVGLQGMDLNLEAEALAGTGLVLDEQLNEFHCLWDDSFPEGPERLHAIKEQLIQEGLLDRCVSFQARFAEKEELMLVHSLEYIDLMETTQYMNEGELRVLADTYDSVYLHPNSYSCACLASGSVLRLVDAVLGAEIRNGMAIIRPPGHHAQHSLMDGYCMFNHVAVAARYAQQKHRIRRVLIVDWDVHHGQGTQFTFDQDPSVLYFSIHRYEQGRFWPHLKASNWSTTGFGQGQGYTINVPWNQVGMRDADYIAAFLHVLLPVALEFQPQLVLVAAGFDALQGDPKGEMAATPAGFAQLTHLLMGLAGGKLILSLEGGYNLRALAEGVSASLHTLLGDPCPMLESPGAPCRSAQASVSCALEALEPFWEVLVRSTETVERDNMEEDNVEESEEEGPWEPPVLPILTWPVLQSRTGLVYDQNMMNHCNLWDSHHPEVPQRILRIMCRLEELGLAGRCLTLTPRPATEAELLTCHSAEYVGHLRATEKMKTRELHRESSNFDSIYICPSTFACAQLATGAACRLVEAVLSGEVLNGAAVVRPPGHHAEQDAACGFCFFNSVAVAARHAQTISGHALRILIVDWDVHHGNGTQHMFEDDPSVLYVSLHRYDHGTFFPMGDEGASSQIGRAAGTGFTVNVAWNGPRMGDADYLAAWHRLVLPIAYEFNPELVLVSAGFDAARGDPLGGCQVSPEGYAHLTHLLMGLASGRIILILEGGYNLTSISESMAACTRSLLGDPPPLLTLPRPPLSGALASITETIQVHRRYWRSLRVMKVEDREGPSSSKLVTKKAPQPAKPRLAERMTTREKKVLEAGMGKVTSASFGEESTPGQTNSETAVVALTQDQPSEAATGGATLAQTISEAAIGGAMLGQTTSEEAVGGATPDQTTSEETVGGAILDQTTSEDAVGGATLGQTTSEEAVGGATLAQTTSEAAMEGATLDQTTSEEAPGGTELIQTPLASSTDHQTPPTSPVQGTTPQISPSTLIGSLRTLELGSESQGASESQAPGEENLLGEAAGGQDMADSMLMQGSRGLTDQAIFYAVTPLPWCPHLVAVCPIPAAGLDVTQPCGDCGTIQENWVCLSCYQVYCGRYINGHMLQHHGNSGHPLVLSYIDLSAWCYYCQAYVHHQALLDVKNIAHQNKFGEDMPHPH

[2] = molecular target: T1, Protein deacetylase HDAC6; assay: Inhibition of human HDAC6 using Ac-Lys (Ac)-AMC as substrate incubated for 120 mins by fluorescence analysis
[3] = species on record: Homo sapiens; assay: Selectivity index, ratio IC50 inhibition of human HDAC1 to IC50 for inhibition of human HDAC6 using Ac-Lys (Ac)-AMC as substrate
[4] = molecular target: Histone deacetylase 1 (Homo sapiens, UniProt Q13547); assay: Inhibition of human HDAC1 incubated for 10 mins and measured after 30 mins by ELISA
[5] = tested on: HELF; assay: Antifibrotic activity against TGF-beta1-induced HELF cells assessed as reduction in viability at 10 uM after 48 hrs by MTT assay; type: functional, cell-based; conditions: Homo sapiens
[6] = Cytotoxicity against HELF cells assessed as reduction in viability at 1 to 300 uM after 48 hrs under without FBS condition by MTT assay; type: toxicity, cell-based; conditions: human, dose 1-300 µM
[7] = Cytotoxicity against HELF cells assessed as reduction in viability at 10 uM after 48 hrs by MTT assay; type: toxicity, cell-based; conditions: human

Chain of Histone deacetylase 1 (Q13547 whole entry): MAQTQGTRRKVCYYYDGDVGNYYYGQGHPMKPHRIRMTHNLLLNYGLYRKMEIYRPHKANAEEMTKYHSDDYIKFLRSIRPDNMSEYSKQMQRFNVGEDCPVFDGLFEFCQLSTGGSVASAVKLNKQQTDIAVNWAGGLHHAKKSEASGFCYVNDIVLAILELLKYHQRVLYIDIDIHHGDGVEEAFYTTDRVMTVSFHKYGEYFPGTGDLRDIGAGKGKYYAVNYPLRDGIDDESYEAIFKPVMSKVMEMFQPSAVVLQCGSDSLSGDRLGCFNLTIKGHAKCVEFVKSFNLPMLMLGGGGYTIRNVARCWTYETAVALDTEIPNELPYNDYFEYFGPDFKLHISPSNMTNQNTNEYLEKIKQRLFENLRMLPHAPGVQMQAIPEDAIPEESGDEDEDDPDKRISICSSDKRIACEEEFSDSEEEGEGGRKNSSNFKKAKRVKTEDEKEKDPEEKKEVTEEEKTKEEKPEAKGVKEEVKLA

Compound	pIC50 [1]	pIC50 [2]	Ratio IC50 [3]	pIC50 [4]	Activity [5]	Activity [6]	Activity [7]
O=C(CCCCCCCN1C(=O)[C@@H]2CCC(=O)N2Cc2ccccc21)NO	7.90	7.67	36.8	6.10	–	–	–
CN1CCc2c(c3ccccc3n2Cc2ccc(C(=O)NO)cc2)C1 [TUBASTATIN A]	–	–	–	–	Active	Toxic	Non-Toxic
